Data reported in the supplement of paper PMC10307832.

How the values were obtained:
Experiment in all cases: relative viability (nuclei count vs DMSO), 5 days (fraction); higher = more cells survive
Doramapimod + Phenformin = compound: Cc1ccc(-n2nc(C(C)(C)C)cc2NC(=O)Nc2ccc(OCCN3CCOCC3)c3ccccc23)cc1 [Doramapimod] + N=C(N)NC(=N)NCCc1ccccc1 [Phenformin] (partner 250 µM)
How it was run: (§1)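 Cells from lung cancer lines were seeded into 1536-well plates and, one day later, dosed by pin tool. Treatments were either a single drug or a fixed dose of an anchor drug with five library-drug doses (not always all listed) in √10 steps. After 5 days, nuclei were stained in a one-step fixation (final 0.05% Triton X-100, 1% formaldehyde, 1 ug/ml Hoechst) and counted on 4× images, and relative viability is the treated-to-vehicle nuclei ratio, as the median of duplicate plates.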

Doramapimod + Crizotinib = compound: Cc1ccc(-n2nc(C(C)(C)C)cc2NC(=O)Nc2ccc(OCCN3CCOCC3)c3ccccc23)cc1 [Doramapimod] + C[C@@H](Oc1cc(-c2cnn(C3CCNCC3)c2)cnc1N)c1c(Cl)ccc(F)c1Cl [Crizotinib] (partner 1 µM)
How it was run: as §1

IPA-3 + Phenformin = compound: C1=CC=C2C(=C1)C=CC(=C2SSC3=C(C=CC4=CC=CC=C43)O)O [IPA-3] + N=C(N)NC(=N)NCCc1ccccc1 [Phenformin] (partner 250 µM)
How it was run: as §1

RAF265 + Tozasertib = compound: Cn1c(Nc2ccc(C(F)(F)F)cc2)nc2cc(Oc3ccnc(-c4ncc(C(F)(F)F)[nH]4)c3)ccc21 [RAF265] + Cc1cc(Nc2cc(N3CCN(C)CC3)nc(Sc3ccc(NC(=O)C4CC4)cc3)n2)n[nH]1 [Tozasertib] (partner 0.1 µM)
How it was run: as §1

## COR-L 105
Doramapimod + Phenformin; first compound 0.02 µM
  relative viability: 0.513
Doramapimod + Phenformin; first compound 0.06325 µM
  relative viability: 0.461
Doramapimod + Phenformin; first compound 0.2 µM
  relative viability: 0.443
Doramapimod + Phenformin; first compound 0.6325 µM
  relative viability: 0.619
Doramapimod + Phenformin; first compound 2 µM
  relative viability: 0.453
Doramapimod + Crizotinib; first compound 0.02 µM
  relative viability: 0.849
Doramapimod + Crizotinib; first compound 0.06325 µM
  relative viability: 0.915
Doramapimod + Crizotinib; first compound 0.2 µM
  relative viability: 0.798
Doramapimod + Crizotinib; first compound 0.6325 µM
  relative viability: 0.897
Doramapimod + Crizotinib; first compound 2 µM
  relative viability: 0.75
IPA-3 + Phenformin; first compound 0.2 µM
  relative viability: 0.634
IPA-3 + Phenformin; first compound 0.6325 µM
  relative viability: 0.445
IPA-3 + Phenformin; first compound 2 µM
  relative viability: 0.49
IPA-3 + Phenformin; first compound 6.325 µM
  relative viability: 0.418
IPA-3 + Phenformin; first compound 20 µM
  relative viability: 0.55
RAF265 + Tozasertib; first compound 0.01 µM
  relative viability: 0.435
RAF265 + Tozasertib; first compound 0.03162 µM
  relative viability: 0.423
RAF265 + Tozasertib; first compound 0.1 µM
  relative viability: 0.341
RAF265 + Tozasertib; first compound 0.3162 µM
  relative viability: 0.451
RAF265 + Tozasertib; first compound 1 µM
  relative viability: 0.317

## NCI-H520
Doramapimod + Phenformin; first compound 0.02 µM
  relative viability: 0.632
Doramapimod + Phenformin; first compound 0.06325 µM
  relative viability: 0.62
Doramapimod + Phenformin; first compound 0.2 µM
  relative viability: 0.533
Doramapimod + Phenformin; first compound 0.6325 µM
  relative viability: 0.492
Doramapimod + Phenformin; first compound 2 µM
  relative viability: 0.346
Doramapimod + Crizotinib; first compound 0.02 µM
  relative viability: 0.614
Doramapimod + Crizotinib; first compound 0.06325 µM
  relative viability: 0.767
Doramapimod + Crizotinib; first compound 0.2 µM
  relative viability: 0.709
Doramapimod + Crizotinib; first compound 0.6325 µM
  relative viability: 0.803
Doramapimod + Crizotinib; first compound 2 µM
  relative viability: 0.52
IPA-3 + Phenformin; first compound 0.2 µM
  relative viability: 0.817
IPA-3 + Phenformin; first compound 0.6325 µM
  relative viability: 0.63
IPA-3 + Phenformin; first compound 2 µM
  relative viability: 0.369
IPA-3 + Phenformin; first compound 6.325 µM
  relative viability: 0.512
IPA-3 + Phenformin; first compound 20 µM
  relative viability: 0.712
RAF265 + Tozasertib; first compound 0.01 µM
  relative viability: 0.448
RAF265 + Tozasertib; first compound 0.03162 µM
  relative viability: 0.414
RAF265 + Tozasertib; first compound 0.1 µM
  relative viability: 0.384
RAF265 + Tozasertib; first compound 0.3162 µM
  relative viability: 0.491
RAF265 + Tozasertib; first compound 1 µM
  relative viability: 0.338

## LU99A
Doramapimod + Phenformin; first compound 0.02 µM
  relative viability: 0.768
Doramapimod + Phenformin; first compound 0.06325 µM
  relative viability: 0.851
Doramapimod + Phenformin; first compound 0.2 µM
  relative viability: 0.942
Doramapimod + Phenformin; first compound 0.6325 µM
  relative viability: 0.846
Doramapimod + Phenformin; first compound 2 µM
  relative viability: 0.712
Doramapimod + Crizotinib; first compound 0.02 µM
  relative viability: 0.562
Doramapimod + Crizotinib; first compound 0.06325 µM
  relative viability: 0.541
Doramapimod + Crizotinib; first compound 0.2 µM
  relative viability: 0.533
Doramapimod + Crizotinib; first compound 0.6325 µM
  relative viability: 0.585
Doramapimod + Crizotinib; first compound 2 µM
  relative viability: 0.442
IPA-3 + Phenformin; first compound 0.2 µM
  relative viability: 0.883
IPA-3 + Phenformin; first compound 0.6325 µM
  relative viability: 0.764
IPA-3 + Phenformin; first compound 2 µM
  relative viability: 0.858
IPA-3 + Phenformin; first compound 6.325 µM
  relative viability: 0.933
IPA-3 + Phenformin; first compound 20 µM
  relative viability: 0.799
RAF265 + Tozasertib; first compound 0.01 µM
  relative viability: 0.318
RAF265 + Tozasertib; first compound 0.03162 µM
  relative viability: 0.285
RAF265 + Tozasertib; first compound 0.1 µM
  relative viability: 0.28
RAF265 + Tozasertib; first compound 0.3162 µM
  relative viability: 0.291
RAF265 + Tozasertib; first compound 1 µM
  relative viability: 0.195

## NCI-H1666
Doramapimod + Phenformin; first compound 0.02 µM
  relative viability: 0.601
Doramapimod + Phenformin; first compound 0.06325 µM
  relative viability: 0.555
Doramapimod + Phenformin; first compound 0.2 µM
  relative viability: 0.61
Doramapimod + Phenformin; first compound 0.6325 µM
  relative viability: 0.581
Doramapimod + Phenformin; first compound 2 µM
  relative viability: 0.554
Doramapimod + Crizotinib; first compound 0.02 µM
  relative viability: 1.21
Doramapimod + Crizotinib; first compound 0.06325 µM
  relative viability: 0.907
Doramapimod + Crizotinib; first compound 0.2 µM
  relative viability: 0.959
Doramapimod + Crizotinib; first compound 0.6325 µM
  relative viability: 1.08
Doramapimod + Crizotinib; first compound 2 µM
  relative viability: 0.935
IPA-3 + Phenformin; first compound 0.2 µM
  relative viability: 0.654
IPA-3 + Phenformin; first compound 0.6325 µM
  relative viability: 0.552
IPA-3 + Phenformin; first compound 2 µM
  relative viability: 0.547
IPA-3 + Phenformin; first compound 6.325 µM
  relative viability: 1.04
IPA-3 + Phenformin; first compound 20 µM
  relative viability: 0.469
RAF265 + Tozasertib; first compound 0.01 µM
  relative viability: 0.635
RAF265 + Tozasertib; first compound 0.03162 µM
  relative viability: 0.664
RAF265 + Tozasertib; first compound 0.1 µM
  relative viability: 0.689
RAF265 + Tozasertib; first compound 0.3162 µM
  relative viability: 0.618
RAF265 + Tozasertib; first compound 1 µM
  relative viability: 0.488
